Test results taken from patent publication US20230285337A1, “LONG ACTING ANTICANCER COMPOSITIONS” (INTRAGEL THERAPEUTICS LTD., priority 2020, published 2023).

What was measured:
[1] = test system: Head and Neck Cancer tumor cells; experiment: In vivo testing of the cisplatin formulation for head and neck cancer with radiotherapy; settings: nude mice, treatment 20 days after cell injection, 8 Gy irradiation at day 21 and 24, terminated day 50
Experimental: In this study, 3 experimental groups were used, 6 nude mice per group. All mice were injected with 600000 tumor cells. […] Cisplatin solutions were injected IP for 4 consecutive weeks, a total of 4 administrations. The animals were irradiated with 8 Gy at day 21 and day 24. The experiment was terminated at day 50.

[2] = rat, in vivo, iv, 5 mg/kg
Experimental: Polymer-cisplatin was injected subcutaneously to mice at the amount 10, 20, 40 µL per mice that is 4, 8, 16 mg cisplatin/Kg. As controls, 50µL of the drug free polymer was injected and 200 µL IV injection at a dose of 5 mg/kg. The mice were observed daily for morbidity and mortality, and daily for general clinical signs (cage side observation): changes in the skin, fur, eyes, nose, mouth, head, respiration, urine, feces, locomotor, and overall wellness.
An animal showing one of the humane endpoints according to Clinical Signs″, SOP-06-019, were euthanized and subjected to the termination procedure. Blood collection for cisplatin content was at 0(baseline), 1 h, 4 h, 8 h, 24 h,48 h,96 h, 168 h, thereafter once weekly until week 4. Blood for CBC and Biochemistry was at: 0(Baseline), 24 h, 72 h, 168 h thereafter once weekly until sacrifice. For the IV injected mice, plasma was collected at 0(baseline), 5 m, 15 m, 30 m, 1 h, 2 h, 4 h, 8 h, 24 h, 48 h, 72 h, and 96 h. Whole blood and Blood Biochemistry was at 0(Baseline), 24h and 96h. Whole blood was collected from each animal and treated according to common procedures. Urine collection amount was recorded at 0-6, 12-24, 48-72h, 72-96h, 96-120h and once weekly thereafter.

SMILES: [NH2][Pt]([NH2])([Cl])[Cl] [cisplatin solution, Cisplatin]
- effect on the tumor (tumor size) [1]: did not show any effect on the tumor
- blood count (HGB, RBG & HCT) [2]: drastic drop in markers
- body weight [2]: lower body weight
- kidneys performance (creatinine and urea excretion) [2]: deteriorated kidneys performance
- side effects, behaviour after injection [2]: severe side effects
